From patent publication US11155557B2, “Pyrazolopyrimidine compounds and methods of use thereof” (Genentech, Inc., priority 2016, dated 2021) come the findings set out here.

The target in experiment [1] is isolated recombinant JAK1 kinase domain (Homo sapiens (Human), UniProt P23458). Put plainly: JAK1 enzyme assay (Caliper LabChip, Ki). Type of experiment: biochemical. As to the method: The activity of the isolated recombinant JAK1 and JAK2 kinase domain was measured by monitoring phosphorylation of a peptide derived from JAK3 ([…] fluorescently labeled on the N-terminus with 5-carboxyfluorescein) using the Caliper LabChip R technology (Caliper Life Sciences, Hopkinton, Mass.).

Experiment [2] concerns JAK1-dependent STAT6 phosphorylation in BEAS-2B human bronchial epithelial cells. Put plainly: JAK1 pathway assay: IL-13 stimulated STAT6 phosphorylation in BEAS-2B cells. The class given is cell-based. Conditions: Homo sapiens, BEAS-2B, BEAS-2B cells, IL-13 stimulation; read-out: IL-13 p-STAT6 BEAS-2B IC50. As for the experimental part: JAK1 Pathway Assay in Cell Lines was Carried Out as Follows:
Inhibitor potency (EC50) was determined in cell-based assays designed to measure JAK1 dependent STAT phosphorylation.
In one assay approach, TF-1 human erythroleukemia cells obtained from the American Type Culture Collection (ATCC; Manassas, Va.) were used to measure JAK1-dependent STAT6 phosphorylation downstream of IL-13 stimulation. Prior to use in the assays, TF-1 cells were starved of GM-CSF overnight in OptiMEM medium (Life Technologies, Grand Island, N.Y.) supplemented with 0.5% charcoal/dextran stripped fetal bovine serum (FBS), 0.1 mM non-essential amino acids (NEAA), and 1 mM sodium pyruvate. The assays were run in 384-well plates in serum-free OptiMEM medium using 300,000 cells per well. In a second assay approach, BEAS-2B human bronchial epithelial cells obtained from ATCC were plated at 100,000 cells per well of a 96-well plate one day prior to the experiment. The BEAS-2B assay was run in complete growth medium (bronchial epithelial basal medium plus bulletkit; Lonza; Basel, Switzerland).
Test compounds were serially diluted 1:2 in DMSO and then diluted 1:50 in medium just before use. Diluted compounds were added to the cells, for a final DMSO concentration of 0.2%, and incubated for 30 min (for the TF-1 assay) or 1 hr (for the BEAS-2B assay) at 37° C. Then, cells were stimulated with human recombinant cytokine at their respective EC90 concentrations, as previously determined for each individual lot. Cells were stimulated with IL-13 (R&D Systems, Minneapolis, Minn.) for 15 min at 37° C. […] The resultant samples were frozen in the plates at −80° C. Compound mediated inhibition of STAT6 phosphorylation was measured in the cell lysates using MesoScale Discovery (MSD) technology (Gaithersburg, Md.).

The target in experiment [3] is isolated recombinant JAK2 kinase domain (Homo sapiens (Human), UniProt O60674). Put plainly: JAK2 enzyme assay (Caliper LabChip, Ki).
Protocol: JAK Enzyme Assays were Carried Out as Follows:
The activity of the isolated recombinant JAK1 and JAK2 kinase domain was measured by monitoring phosphorylation of a peptide derived from JAK3 ([sequence] fluorescently labeled on the N-terminus with 5-carboxyfluorescein) using the Caliper LabChip R technology (Caliper Life Sciences, Hopkinton, Mass.). […] After termination of the kinase reaction, the proportion of phosphorylated product was determined as a fraction of total peptide substrate using the Caliper LabChip R 3000 according to the manufacturer's specifications.

Like-named read-outs stand apart in the source and are kept apart here. Some results are limits rather than exact numbers.

Sequence of isolated recombinant JAK2 kinase domain (O60674 849-1124): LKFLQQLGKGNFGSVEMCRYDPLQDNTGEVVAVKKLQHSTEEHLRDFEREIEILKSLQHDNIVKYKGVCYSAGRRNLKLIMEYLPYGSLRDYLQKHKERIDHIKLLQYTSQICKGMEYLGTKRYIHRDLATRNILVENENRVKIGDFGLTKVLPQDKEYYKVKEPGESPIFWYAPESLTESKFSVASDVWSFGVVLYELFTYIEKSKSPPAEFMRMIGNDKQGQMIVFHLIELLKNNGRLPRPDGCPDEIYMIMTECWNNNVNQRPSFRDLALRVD
Sequence of isolated recombinant JAK1 kinase domain (P23458 875-1153): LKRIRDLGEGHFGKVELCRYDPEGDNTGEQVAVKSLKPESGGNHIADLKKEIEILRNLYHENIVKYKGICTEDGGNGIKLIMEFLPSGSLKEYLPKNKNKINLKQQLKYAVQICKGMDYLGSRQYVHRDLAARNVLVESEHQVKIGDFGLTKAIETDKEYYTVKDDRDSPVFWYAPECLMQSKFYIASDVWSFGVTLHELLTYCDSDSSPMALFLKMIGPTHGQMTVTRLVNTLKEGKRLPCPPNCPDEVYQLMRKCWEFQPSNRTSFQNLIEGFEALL

The Ki is the equilibrium dissociation constant of an inhibitor or competing ligand from its target. In general, IC50 refers to the midpoint of a concentration-inhibition curve. Consider `O=C(Nc1c[nH]nc1-c1cc2ccccc2cc1OC(F)F)c1cnn2cccnc12` [Example 1, N-(3-(3-(difluoromethoxy)naphthalen-2-yl)-1H-pyrazol-4-yl)pyrazolo[1,5-a]pyrimidine-3-carboxamide], for which the figures for the Ki in experiment [1] and in experiment [3] (read-out: JAK2 Ki) were 0.31 nM and 0.14 nM, respectively. Further, the half-maximal inhibitory concentration (IC50) in experiment [2] was determined as 6 nM.

On to `O=C(Nc1cn(CC(=O)N2CCC(CN3CCOCC3)CC2)nc1-c1cc2ccccc2cc1OC(F)F)c1cnn2cccnc12` [Example 3, N-(3-(3-(difluoromethoxy)naphthalen-2-yl)-1-(2-(4-(morpholinomethyl)piperidin-1-yl)-2-oxoethyl)-1H-pyrazol-4-yl)pyrazolo[1,5-a]pyrimidine-3-carboxamide], for which the Ki amounted to 0.38 nM in experiment [1] and 0.97 nM in experiment [3] (read-out: JAK2 Ki). Also, the IC50 in experiment [2] was found to be 8 nM.

As for `Cn1cc(NC(=O)c2cnn3cccnc23)c(-c2cc3ccccc3cc2OC(F)F)n1` [Example 4, N-(3-(3-(difluoromethoxy)naphthalen-2-yl)-1-methyl-1H-pyrazol-4-yl)pyrazolo[1,5-a]pyrimidine-3-carboxamide], the Ki in experiment [1] came to 0.22 nM; in experiment [3] (read-out: JAK2 Ki), 0.12 nM. For the same compound, in experiment [2], the IC50 came to 22 nM.

For `O=C(Nc1cn(CC(=O)N2CCCCC2)nc1-c1cc2c(cc1OC(F)F)NCCO2)c1cnn2cccnc12` [Example 6, N-[3-[6-(difluoromethoxy)-3,4-dihydro-2H-1,4-benzoxazin-7-yl]-1-[2-oxo-2-(piperidin-1-yl)ethyl]-1H-pyrazol-4-yl]pyrazolo[1,5-a]pyrimidine-3-carboxamide], the Ki came out at 0.2 nM in experiment [1] and 0.31 nM in experiment [3] (read-out: JAK2 Ki). In addition, the IC50 in experiment [2] came to 17 nM.

Take `COC(=O)c1cc2cc(OC(F)F)c(-c3n[nH]cc3NC(=O)c3cnn4cccnc34)cc2s1` [Example 7, Methyl 5-(difluoromethoxy)-6-(4-(pyrazolo[1,5-a]pyrimidine-3-carboxamido)-1H-pyrazol-3-yl)benzo[b]thiophene-2-carboxylate]: the figures for the Ki in experiment [1] and in experiment [3] (read-out: JAK2 Ki) were 0.17 nM and 0.11 nM, respectively. Besides, in experiment [2], the IC50 was determined as 6 nM.

With `COC(=O)Cn1cc(NC(=O)c2cnn3cccnc23)c(-c2cc3sccc3cc2OC(F)F)n1` [Example 8, Methyl 2-(3-(5-(difluoromethoxy)benzo[b]thiophen-6-yl)-4-(pyrazolo[1,5-a]pyrimidine-3-carboxamido)-1H-pyrazol-1-yl)acetate], the figures for the Ki in experiment [1] and in experiment [3] (read-out: JAK2 Ki) were 0.32 nM and 0.29 nM, respectively. Moreover, the IC50 in experiment [2] worked out at 10 nM.

Take `CC(C)(C)OC(=O)N1CCN(C(=O)c2cc3cc(OC(F)F)c(-c4n[nH]cc4NC(=O)c4cnn5cccnc45)cc3s2)CC1` [Example 9, tert-Butyl 4-(5-(difluoromethoxy)-6-(4-(pyrazolo[1,5-a]pyrimidine-3-carboxamido)-1H-pyrazol-3-yl)benzo[b]thiophene-2-carbonyl)piperazine-1-carboxylate]: the Ki was 3.99 nM in experiment [1] and 2.85 nM in experiment [3] (read-out: JAK2 Ki). In experiment [2], the half-inhibitory concentration (IC50) was 153 nM.

Consider `O=C(Nc1c[nH]nc1-c1cc2sc(C(=O)N3CCNCC3)cc2cc1OC(F)F)c1cnn2cccnc12` [Example 10, N-(3-(5-(difluoromethoxy)-2-(piperazine-1-carbonyl)benzo[b]thiophen-6-yl)-1H-pyrazol-4-yl)pyrazolo[1,5-a]pyrimidine-3-carboxamide], for which the results for the Ki in experiment [1] and in experiment [3] (read-out: JAK2 Ki) were 4.54 nM and 1.99 nM, respectively. In experiment [2], the IC50 is above 1000 nM.

As to `O=C(Nc1c[nH]nc1-c1cc2c(cc1OC(F)F)NCCO2)c1cnn2cccnc12` [Example 11], the Ki was found to be 0.1 nM in experiment [1] and 0.08 nM in experiment [3] (read-out: JAK2 Ki). In addition, the IC50 in experiment [2] came out at 4 nM.

On to `O=C(Nc1c[nH]nc1-c1cc2c(cc1OC(F)F)NCCS2)c1cnn2cccnc12` [Example 12, N-(3-(6-(difluoromethoxy)-3,4-dihydro-2H-benzo[b][1,4]thiazin-7-yl)-1H-pyrazol-4-yl)pyrazolo[1,5-a]pyrimidine-3-carboxamide], for which the Ki in experiment [1] was 0.09 nM; in experiment [3] (read-out: JAK2 Ki) it was 0.06 nM. Further, the IC50 in experiment [2] came to 6 nM.

Take `NCCn1cc(NC(=O)c2cnn3cccnc23)c(-c2cc3c(cc2OC(F)F)NCCS3)n1` [Example 13, N-(1-(2-aminoethyl)-3-(6-(difluoromethoxy)-3,4-dihydro-2H-benzo[b][1,4]thiazin-7-yl)-1H-pyrazol-4-yl)pyrazolo[1,5-a]pyrimidine-3-carboxamide]: the Ki in experiment [1] stood at 0.18 nM; in experiment [3] (read-out: JAK2 Ki), 0.13 nM. In addition, the IC50 in experiment [2] worked out at 20 nM.

In the case of `O=C1CSc2cc(-c3n[nH]cc3NC(=O)c3cnn4cccnc34)c(OC(F)F)cc2N1` [Example 14, N-[3-[6-(difluoromethoxy)-3-oxo-3,4-dihydro-2H-1,4-benzothiazin-7-yl]-1H-pyrazol-4-yl]pyrazolo[1,5-a]pyrimidine-3-carboxamide], the Ki came out at 0.05 nM in experiment [1] and 0.04 nM in experiment [3] (read-out: JAK2 Ki). Also, in experiment [2], the IC50 came to 27 nM.

Regarding `O=C(Nc1c[nH]nc1-c1cc2c(cc1OC(F)F)CCO2)c1cnn2cccnc12` [Example 16, N-(3-(5-(difluoromethoxy)-2,3-dihydrobenzofuran-6-yl)-1H-pyrazol-4-yl)pyrazolo[1,5-a]pyrimidine-3-carboxamide], the Ki was determined as 0.21 nM in experiment [1] and 0.09 nM in experiment [3] (read-out: JAK2 Ki). The IC50 in experiment [2] was 5 nM.

Regarding `O=C(Nc1c[nH]nc1-c1cc2c(cc1OC(F)F)CCCO2)c1cnn2cccnc12` [Example 17, N-[3-[6-(difluoromethoxy)-3,4-dihydro-2H-1-benzopyran-7-yl]-H-pyrazol-4-yl]pyrazolo[1,5-a]pyrimidine-3-carboxamide], the results for the Ki in experiment [1] and in experiment [3] (read-out: JAK2 Ki) were 0.32 nM and 0.14 nM, respectively. Besides, the IC50 in experiment [2] was 14 nM.

As for `COC(=O)Cn1cc(NC(=O)c2cnn3cccnc23)c(-c2cc3sc(C#N)cc3cc2OC(F)F)n1` [Example 19, Methyl 2-(3-(2-cyano-5-(difluoromethoxy)benzo[b]thiophen-6-yl)-4-(pyrazolo[1,5-a]pyrimidine-3-carboxamido)-1H-pyrazol-1-yl)acetate], the Ki in experiment [1] turned out to be 0.3 nM; in experiment [3] (read-out: JAK2 Ki), 0.33 nM. Further, the IC50 in experiment [2] was found to be 21 nM.

In the case of `Cn1cc(NC(=O)c2cnn3cccnc23)c(-c2cc3sc(C(=O)N4CCN(C(=O)OC(C)(C)C)CC4)cc3cc2OC(F)F)n1` [Example 20, tert-Butyl 4-(5-(difluoromethoxy)-6-(1-methyl-4-(pyrazolo[1,5-a]pyrimidine-3-carboxamido)-1H-pyrazol-3-yl)benzo[b]thiophene-2-carbonyl)piperazine-1-carboxylate], the results for the Ki in experiment [1] and in experiment [3] (read-out: JAK2 Ki) were 5.57 nM and 4.48 nM, respectively. The concentration for half-maximal inhibition (IC50) in experiment [2] was 186 nM.

For the compound `O=C(Nc1c[nH]nc1-c1cc2cn[nH]c2cc1OC(F)F)c1cnn2cccnc12` [Example 21, N-(3-(6-(difluoromethoxy)-1H-indazol-5-yl)-1H-pyrazol-4-yl)pyrazolo[1,5-a]pyrimidine-3-carboxamide], the Ki was determined as 0.07 nM in experiment [1] and 0.05 nM in experiment [3]. In addition, in experiment [2], the IC50 was found to be 37 nM.

Regarding `COc1cc2cc(C)sc2cc1-c1n[nH]cc1NC(=O)c1cnn2cccnc12` [Example 22, N-(3-(5-methoxy-2-methylbenzo[b]thiophen-6-yl)-1H-pyrazol-4-yl)pyrazolo[1,5-a]pyrimidine-3-carboxamide], the Ki in experiment [1] was determined as 0.19 nM; in experiment [3] (read-out: JAK2 Ki), 0.12 nM. In experiment [2], the IC50 is 6 nM.

With `COc1cc2sc(C#N)cc2cc1-c1n[nH]cc1NC(=O)c1cnn2cccnc12` [Example 24, N-(3-(2-cyano-6-methoxybenzo[b]thiophen-5-yl)-H-pyrazol-4-yl)pyrazolo[1,5-a]pyrimidine-3-carboxamide], the figures for the Ki in experiment [1] and in experiment [3] (read-out: JAK2 Ki) were 0.41 nM and 0.27 nM, respectively. For the same compound, the IC50 in experiment [2] turned out to be 14 nM.

Regarding `Cc1cc2cc(OC(F)F)c(-c3n[nH]cc3NC(=O)c3cnn4cccnc34)cc2s1` [Example 25, N-(3-(5-(difluoromethoxy)-2-methylbenzo[b]thiophen-6-yl)-1H-pyrazol-4-yl)pyrazolo[1,5-a]pyrimidine-3-carboxamide], the Ki in experiment [1] stood at 0.11 nM; in experiment [3] (read-out: JAK2 Ki) it was 0.06 nM. In experiment [2], the IC50 was 5 nM.

On to `O=C(Nc1c[nH]nc1-c1cc2c(cc1OC(F)F)CCC2)c1cnn2cccnc12` [Example 26, N-[3-[6-(difluoromethoxy)indan-5-yl]-1H-pyrazol-4-yl]pyrazolo[1,5-a]pyrimidine-3-carboxamide], for which the results for the Ki in experiment [1] and in experiment [3] (read-out: JAK2 Ki) were 0.19 nM and 0.08 nM, respectively. Further, the IC50 in experiment [2] is 8 nM.
